Measured values reported in ChEMBL document CHEMBL4251681, “Isochromophilones A-F, Cytotoxic Chloroazaphilones from the Marine Mangrove Endophytic Fungus Diaporthe sp. SCSIO 41011” (J Nat Prod, 2018).
The source made the active and inactive calls. The calls are words filed in the database; no cut-off is given here.

Tests used:
OS-RC-2 = experiment: Cytotoxicity against human OS-RC2 cells after 72 hrs by CCK-8 assay; format: functional, cell-based; settings: OS-RC-2, 72 h
786-0 [1] = experiment: Cytotoxicity against human 786-O cells after 72 hrs by CCK-8 assay; format: functional, cell-based; settings: 786-0, 72 h
ACHN = experiment: Cytotoxicity against human ACHN cells after 72 hrs by CCK-8 assay; format: functional, cell-based
786-0 [2] = experiment: Induction of apoptosis in human 786-O cells assessed as early apoptotic cells at 2.5 uM after 24 hrs by annexin V-FITC/propidium iodide staining based flow cytometry (reference value: 0%); format: functional
786-0 [3] = experiment: Induction of apoptosis in human 786-O cells assessed as late apoptotic cells at 10 uM after 48 hrs by annexin V-FITC/propidium iodide staining based flow cytometry (reference value: 0%); format: functional
786-0 [4] = experiment: Induction of apoptosis in human 786-O cells assessed as necrotic cells at 5 uM after 48 hrs by annexin V-FITC/propidium iodide staining based flow cytometry (reference value: 0%); format: functional
786-0 [5] = experiment: Induction of apoptosis in human 786-O cells assessed as necrotic cells at 10 uM after 48 hrs by annexin V-FITC/propidium iodide staining based flow cytometry (reference value: 0%); format: functional
786-0 [6] = experiment: Induction of apoptosis in human 786-O cells assessed as early apoptotic cells at 2.5 uM after 72 hrs by annexin V-FITC/propidium iodide staining based flow cytometry (reference value: 0%); format: functional
786-0 [7] = experiment: Induction of apoptosis in human 786-O cells assessed as necrotic cells at 2.5 uM after 48 hrs by annexin V-FITC/propidium iodide staining based flow cytometry (reference value: 0%); format: functional
786-0 [8] = experiment: Induction of apoptosis in human 786-O cells assessed as late apoptotic cells at 2.5 uM after 24 hrs by annexin V-FITC/propidium iodide staining based flow cytometry (reference value: 0%); format: functional
786-0 [9] = experiment: Induction of apoptosis in human 786-O cells assessed as viable cells at 5 uM after 24 hrs by annexin V-FITC/propidium iodide staining based flow cytometry (reference value: 100%); format: functional; settings: 786-0, 24 h, read-out: Activity
786-0 [10] = experiment: Induction of apoptosis in human 786-O cells assessed as late apoptotic cells at 10 uM after 72 hrs by annexin V-FITC/propidium iodide staining based flow cytometry (reference value: 0%); format: functional
786-0 [11] = experiment: Induction of apoptosis in human 786-O cells assessed as viable cells at 2.5 uM after 24 hrs by annexin V-FITC/propidium iodide staining based flow cytometry (reference value: 100%); format: functional; settings: 786-0, 24 h, read-out: Activity
786-0 [12] = experiment: Induction of apoptosis in human 786-O cells assessed as viable cells at 5 uM after 72 hrs by annexin V-FITC/propidium iodide staining based flow cytometry (reference value: 100%); format: functional; settings: 786-0, 72 h, read-out: Activity
786-0 [13] = experiment: Induction of apoptosis in human 786-O cells assessed as early apoptotic cells at 2.5 uM after 48 hrs by annexin V-FITC/propidium iodide staining based flow cytometry (reference value: 0%); format: functional
786-0 [14] = experiment: Induction of apoptosis in human 786-O cells assessed as early apoptotic cells at 5 uM after 48 hrs by annexin V-FITC/propidium iodide staining based flow cytometry (reference value: 0%); format: functional
786-0 [15] = experiment: Induction of apoptosis in human 786-O cells assessed as viable cells at 10 uM after 72 hrs by annexin V-FITC/propidium iodide staining based flow cytometry (reference value: 100%); format: functional; settings: 786-0, 72 h, read-out: Activity
786-0 [16] = experiment: Induction of apoptosis in human 786-O cells assessed as necrotic cells at 5 uM after 24 hrs by annexin V-FITC/propidium iodide staining based flow cytometry (reference value: 0%); format: functional
786-0 [17] = experiment: Induction of apoptosis in human 786-O cells assessed as late apoptotic cells at 10 uM after 24 hrs by annexin V-FITC/propidium iodide staining based flow cytometry (reference value: 0%); format: functional
786-0 [18] = experiment: Induction of apoptosis in human 786-O cells assessed as early apoptotic cells at 5 uM after 24 hrs by annexin V-FITC/propidium iodide staining based flow cytometry (reference value: 0%); format: functional
786-0 [19] = experiment: Induction of apoptosis in human 786-O cells assessed as late apoptotic cells at 5 uM after 72 hrs by annexin V-FITC/propidium iodide staining based flow cytometry (reference value: 0%); format: functional
786-0 [20] = experiment: Induction of apoptosis in human 786-O cells assessed as late apoptotic cells at 2.5 uM after 48 hrs by annexin V-FITC/propidium iodide staining based flow cytometry (reference value: 0%); format: functional
786-0 [21] = experiment: Induction of apoptosis in human 786-O cells assessed as viable cells at 5 uM after 48 hrs by annexin V-FITC/propidium iodide staining based flow cytometry (reference value: 100%); format: functional; settings: 786-0, 48 h, read-out: Activity
786-0 [22] = experiment: Induction of apoptosis in human 786-O cells assessed as necrotic cells at 10 uM after 24 hrs by annexin V-FITC/propidium iodide staining based flow cytometry (reference value: 0%); format: functional
786-0 [23] = experiment: Induction of apoptosis in human 786-O cells assessed as early apoptotic cells at 10 uM after 48 hrs by annexin V-FITC/propidium iodide staining based flow cytometry (reference value: 0%); format: functional
786-0 [24] = experiment: Induction of apoptosis in human 786-O cells assessed as viable cells at 10 uM after 48 hrs by annexin V-FITC/propidium iodide staining based flow cytometry (reference value: 100%); format: functional; settings: 786-0, 48 h, read-out: Activity
786-0 [25] = experiment: Induction of apoptosis in human 786-O cells assessed as necrotic cells at 2.5 uM after 72 hrs by annexin V-FITC/propidium iodide staining based flow cytometry (reference value: 0%); format: functional
786-0 [26] = experiment: Induction of apoptosis in human 786-O cells assessed as necrotic cells at 10 uM after 72 hrs by annexin V-FITC/propidium iodide staining based flow cytometry (reference value: 0%); format: functional
786-0 [27] = experiment: Induction of apoptosis in human 786-O cells assessed as early apoptotic cells at 10 uM after 24 hrs by annexin V-FITC/propidium iodide staining based flow cytometry (reference value: 0%); format: functional
786-0 [28] = experiment: Induction of apoptosis in human 786-O cells assessed as viable cells at 2.5 uM after 48 hrs by annexin V-FITC/propidium iodide staining based flow cytometry (reference value: 100%); format: functional; settings: 786-0, 48 h, read-out: Activity
786-0 [29] = experiment: Induction of apoptosis in human 786-O cells assessed as necrotic cells at 2.5 uM after 24 hrs by annexin V-FITC/propidium iodide staining based flow cytometry (reference value: 0%); format: functional
786-0 [30] = experiment: Induction of apoptosis in human 786-O cells assessed as early apoptotic cells at 5 uM after 72 hrs by annexin V-FITC/propidium iodide staining based flow cytometry (reference value: 0%); format: functional
786-0 [31] = experiment: Induction of apoptosis in human 786-O cells assessed as late apoptotic cells at 2.5 uM after 72 hrs by annexin V-FITC/propidium iodide staining based flow cytometry (reference value: 0%); format: functional
786-0 [32] = experiment: Induction of apoptosis in human 786-O cells assessed as necrotic cells at 5 uM after 72 hrs by annexin V-FITC/propidium iodide staining based flow cytometry (reference value: 0%); format: functional
786-0 [33] = experiment: Induction of apoptosis in human 786-O cells assessed as viable cells at 10 uM after 24 hrs by annexin V-FITC/propidium iodide staining based flow cytometry (reference value: 100%); format: functional; settings: 786-0, 24 h, read-out: Activity
786-0 [34] = experiment: Induction of apoptosis in human 786-O cells assessed as viable cells at 2.5 uM after 72 hrs by annexin V-FITC/propidium iodide staining based flow cytometry (reference value: 100%); format: functional; settings: 786-0, 72 h, read-out: Activity
786-0 [35] = experiment: Induction of apoptosis in human 786-O cells assessed as late apoptotic cells at 5 uM after 24 hrs by annexin V-FITC/propidium iodide staining based flow cytometry (reference value: 0%); format: functional
786-0 [36] = experiment: Induction of apoptosis in human 786-O cells assessed as early apoptotic cells at 10 uM after 72 hrs by annexin V-FITC/propidium iodide staining based flow cytometry (reference value: 0%); format: functional
786-0 [37] = experiment: Induction of apoptosis in human 786-O cells assessed as late apoptotic cells at 5 uM after 48 hrs by annexin V-FITC/propidium iodide staining based flow cytometry (reference value: 0%); format: functional
786-0 [38] = experiment: Cell cycle arrest in human 786-O cells at 2.5 to 10 uM after 24 hrs by […] based flow cytometry; format: functional

CC[C@H](C)/C=C(C)/C=C/C1=CC2=C(Cl)[C@H](O)[C@]3(C)OC(=O)[C@H](C(C)=O)[C@H]3C2=CO1 was tested. Which IC50 (OS-RC-2) did it give?
Its IC50 is 45 µM.

What about the IC50 (786-0 [1]) of the same compound?
Its IC50 is 34 µM.

What about the IC50 (ACHN) of the same compound?
Its IC50 is 27 µM.

For CC[C@H](C)/C=C(C)/C=C/C1=CC2=C(Cl)[C@H](OC)[C@]3(C)O[C@](C)(OC)[C@H](C(C)=O)[C@H]3C2=CO1, which IC50 (OS-RC-2) is on record?
Its IC50 is 44 µM.

And the IC50 (786-0 [1])?
Its IC50 is 38 µM.

What about the IC50 (ACHN) of the same compound?
Its IC50 is greater than 50 µM.

CC[C@H](C)/C=C(C)/C=C/C1=CC2=C(Cl)C(=O)[C@]3(C)OC(=O)/C(=C(\C)O)[C@]3(O)[C@@]23O[C@H]3O1 was tested. Which IC50 (OS-RC-2) did it give?
Its IC50 is 38 µM.

And the IC50 (786-0 [1])?
The IC50 was 10 µM.

What about the IC50 (ACHN) of the same compound?
The IC50 was 13 µM.

How did the IC50 (OS-RC-2) turn out when CC[C@H](C)/C=C(C)/C=C/C1=CC2=C(Cl)C(=O)[C@](C)(O)[C@@H](O)[C@H]2CO1 was run?
The IC50 was 4.9 µM.

And the IC50 (786-0 [1])?
The IC50 was 48 µM.

And the IC50 (ACHN)?
The IC50 was greater than 50 µM.

With CC[C@H](C)/C=C(C)/C=C/C1=CC2=C(Cl)C(=O)[C@](C)(O)[C@@H](CC(C)=O)C2=CO1 as the compound, how does the IC50 (OS-RC-2) read?
Its IC50 is 3.9 µM.

What about the IC50 (786-0 [1]) of the same compound?
The IC50 was 3 µM.

What about the IC50 (ACHN) of the same compound?
Its IC50 is 4.4 µM.

Which results are given for CC[C@H](C)/C=C(C)/C=C/C1=CC2=C(Cl)[C@H](OC)[C@]3(C)O[C@@](C)(OC)[C@H](C(C)=O)[C@H]3C2=CO1?
Activity (786-0 [2]): 0.8%; Activity (786-0 [3]): 45.5%; Activity (786-0 [4]): 8.9%; Activity (786-0 [5]): 36.7%; Activity (786-0 [6]): 1.5%; Activity (786-0 [7]): 2.5%; IC50 (OS-RC-2): 13 µM; Activity (786-0 [8]): 1.5%; viability at 5 µM (786-0 [9]): 87%; Activity (786-0 [10]): 70.7%; viability at 2.5 µM (786-0 [11]): 93.3%; viability at 5 µM (786-0 [12]): 85.9%; Activity (786-0 [13]): 2%; Activity (786-0 [14]): 2.8%; viability at 10 µM (786-0 [15]): 0.5%; Activity (786-0 [16]): 10.4%; Activity (786-0 [17]): 7.5%; Activity (786-0 [18]): 0.6%; Activity (786-0 [19]): 4%; Activity (786-0 [20]): 1.7%; viability at 5 µM (786-0 [21]): 86.1%; Activity (786-0 [22]): 28.8%; Activity (786-0 [23]): 11.2%; viability at 10 µM (786-0 [24]): 6.6%; Activity (786-0 [25]): 6%; Activity (786-0 [26]): 1.4%; Activity (786-0 [27]): 2.7%; viability at 2.5 µM (786-0 [28]): 93.7%; IC50 (786-0 [1]): 8.9 µM; Activity (786-0 [29]): 4.4%; IC50 (ACHN): 14 µM; Activity (786-0 [30]): 3.5%; Activity (786-0 [31]): 1.8%; Activity (786-0 [32]): 6.6%; viability at 10 µM (786-0 [33]): 60.9%; viability at 2.5 µM (786-0 [34]): 90.7%; Activity (786-0 [35]): 2%; Activity (786-0 [36]): 27.4%; Activity (786-0 [37]): 2.3%; Activity (786-0 [38]): inactive
